Reference: patent publication EP2236511A2, “LIGANDS OF ALPHA-ADRENOCEPTORS AND OF DOPAMINE, HISTAMINE, IMIDAZOLINE AND SEROTONIN RECEPTORS AND THE USE THEREOF” (priority 2007, dated 2009)
Where a name gives a salt, the structure may show the parent alone.

Assays:
human α1D receptor = biological target: T1, human α1D receptor (Homo sapiens, UniProt P25100); assay: Radioligand binding to adrenergic receptor α1D ([3H] Prazosin, HEK-293 membranes); settings: for inhibition at 10 µM: read-out: α-Adrenoceptor, % inhibition α1D; for α-Adrenoceptor, % inhibition α1D: 10 µM ligand
T1 construct: expressed in transfected cells; host or cells: HEK-293
T1 sequence (P25100 1-572): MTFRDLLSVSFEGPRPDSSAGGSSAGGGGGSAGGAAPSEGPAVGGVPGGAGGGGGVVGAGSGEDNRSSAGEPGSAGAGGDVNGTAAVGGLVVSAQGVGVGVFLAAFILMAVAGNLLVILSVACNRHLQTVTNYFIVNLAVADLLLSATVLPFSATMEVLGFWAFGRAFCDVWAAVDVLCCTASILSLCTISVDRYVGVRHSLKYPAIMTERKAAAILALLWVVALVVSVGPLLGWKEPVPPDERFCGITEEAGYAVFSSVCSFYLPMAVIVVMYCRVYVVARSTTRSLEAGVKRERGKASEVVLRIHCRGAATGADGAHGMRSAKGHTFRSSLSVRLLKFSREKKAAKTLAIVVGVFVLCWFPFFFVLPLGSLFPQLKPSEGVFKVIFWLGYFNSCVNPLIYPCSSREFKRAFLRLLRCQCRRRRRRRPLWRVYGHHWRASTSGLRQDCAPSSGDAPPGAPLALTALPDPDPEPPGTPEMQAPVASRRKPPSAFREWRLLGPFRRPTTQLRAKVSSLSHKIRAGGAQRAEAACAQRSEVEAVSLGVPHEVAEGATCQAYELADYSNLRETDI
From the text: 6-C. […] For this purpose sDNA of human α1D receptor is expressed in HEK-293 cells, as it was described in [TL Theroux, TA Esbenshade, RD Peavy and KP Minneman. Coupling efficiencies of human alpha 1-adrenergic receptor subtypes: titration of receptor density and responsiveness with inducible and repressible expression vectors. Mol Pharmacol.; 50: 1376-1387, 1996]. […] Characterization of an α1D-adrenoceptor mediating the contractile response of rat aorta to noradrenaline. […] Prazosin is used as positive control.

adrenergic receptor α1B = biological target: T2, adrenergic receptor α1B (Rattus norvegicus, UniProt P15823); assay: Radioligand binding to adrenergic receptor α1B ([3H] Prazosin, rat liver membranes); settings: for α-Adrenoceptor, % inhibition α1B: 10 µM ligand
T2 construct: membrane species from rat liver (rat of Wistar breed) are prepared; from tissue; host or cells: rat (Wistar) liver
T2 sequence (P15823 1-515): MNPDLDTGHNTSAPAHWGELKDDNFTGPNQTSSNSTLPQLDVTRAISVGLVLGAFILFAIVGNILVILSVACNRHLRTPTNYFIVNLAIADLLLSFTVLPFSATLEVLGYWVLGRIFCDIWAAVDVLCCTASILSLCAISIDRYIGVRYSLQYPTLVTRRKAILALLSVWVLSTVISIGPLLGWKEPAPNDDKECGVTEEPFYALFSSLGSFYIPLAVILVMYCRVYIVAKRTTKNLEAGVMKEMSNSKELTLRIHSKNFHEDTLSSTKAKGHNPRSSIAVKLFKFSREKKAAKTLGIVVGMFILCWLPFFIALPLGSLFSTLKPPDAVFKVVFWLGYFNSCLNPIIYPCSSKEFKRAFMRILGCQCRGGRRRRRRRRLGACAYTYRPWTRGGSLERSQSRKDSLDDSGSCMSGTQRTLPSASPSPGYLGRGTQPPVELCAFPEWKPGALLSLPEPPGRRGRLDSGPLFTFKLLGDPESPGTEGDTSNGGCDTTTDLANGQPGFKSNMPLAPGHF
From the text: Species heterogeneity of hepatic α1A-, α1B-, and α1C-subtypes. Biochem Biophys Res Commun. […] Prazosin is used as positive control.

adrenergic receptor α1A = biological target: T3, adrenergic receptor α1A (Rattus norvegicus, UniProt P43140); assay: Radioligand binding to adrenergic receptor α1A ([3H] Prazosin, rat submaxillary gland membranes); settings: for α-Adrenoceptor, % inhibition α1A: 10 µM ligand
T3 construct: membrane species from rat submaxillary glands (rat of Wistar breed) are prepared; from tissue; host or cells: rat (Wistar) submaxillary gland
T3 sequence (P43140 1-466): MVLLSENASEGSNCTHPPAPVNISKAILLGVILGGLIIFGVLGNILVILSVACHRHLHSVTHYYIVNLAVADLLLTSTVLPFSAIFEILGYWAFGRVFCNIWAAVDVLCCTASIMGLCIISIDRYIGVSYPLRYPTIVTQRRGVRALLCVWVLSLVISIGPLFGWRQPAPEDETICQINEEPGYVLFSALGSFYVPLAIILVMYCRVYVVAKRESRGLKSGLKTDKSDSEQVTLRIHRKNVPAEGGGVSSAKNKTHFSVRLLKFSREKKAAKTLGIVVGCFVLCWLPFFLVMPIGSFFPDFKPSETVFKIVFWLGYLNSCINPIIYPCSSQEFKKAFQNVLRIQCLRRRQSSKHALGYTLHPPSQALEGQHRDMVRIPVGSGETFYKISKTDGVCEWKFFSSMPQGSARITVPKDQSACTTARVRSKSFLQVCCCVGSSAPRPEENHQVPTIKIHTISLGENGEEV
Protocol: Determination of investigated compounds' binding to α1A receptor was carried out according to the method described in [Michel AD, Loury DN and Whiting R1. Identification of a single α1A-adrenoceptor corresponding to the α1A-subtype in rat submaxillary gland. […] Prazosin is used as positive control.

[1] = biological target: T4, recombinant human 5-HT6 receptor (Homo sapiens, UniProt P50406); assay: Radioligand binding to serotonin receptor 5-HT6 ([3H] Lysergic acid diethylamide, HeLa membranes); settings: for inhibition at 1 µM: read-out: 5-HT6 % inhibition
T4 construct: expressed in transfected cells; host or cells: HeLa
From the text: Mol Pharmacol. 43:320-327, 1993]. […] Methiothepin is used as positive control.

imidazoline receptor I2 = assay: Radioligand binding to imidazoline receptor I2 ([3H] Idazoxan, rat brain membranes); settings: 10 µM ligand
[2] = biological target: T5, recombinant human 5-HT2C receptor (Homo sapiens, UniProt P28335); assay: Radioligand binding to serotonin receptor 5-HT2C ([3H] Mesulergine, CHO-K1 membranes); settings: read-out: 5-HT2C % inhibition
T5 construct: expressed in transfected cells; host or cells: CHO-K1
T5 sequence (P28335 33-458): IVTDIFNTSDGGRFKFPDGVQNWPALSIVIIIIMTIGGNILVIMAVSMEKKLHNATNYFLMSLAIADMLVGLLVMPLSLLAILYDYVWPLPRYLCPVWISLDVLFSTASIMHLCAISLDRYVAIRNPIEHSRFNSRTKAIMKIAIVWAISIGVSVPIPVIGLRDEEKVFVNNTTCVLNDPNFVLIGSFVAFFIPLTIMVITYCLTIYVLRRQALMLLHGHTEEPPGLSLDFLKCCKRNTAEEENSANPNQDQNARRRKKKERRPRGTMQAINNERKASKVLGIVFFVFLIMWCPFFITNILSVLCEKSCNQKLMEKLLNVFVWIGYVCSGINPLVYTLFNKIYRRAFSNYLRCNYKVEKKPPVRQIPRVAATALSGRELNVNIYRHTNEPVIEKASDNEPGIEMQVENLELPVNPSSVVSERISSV
From the text: J Neurochem. 69: 1449 - 1458, 1997]. […] SB242084 is used as positive control.

human α2A receptor = biological target: T6, human α2A receptor (Homo sapiens, UniProt P08913); assay: Radioligand binding to adrenergic receptor α2A ([3H] MK-912, Sf9 membranes)
T6 construct: expressed in transfected cells; host or cells: Sf9
T6 sequence (P08913 1-465): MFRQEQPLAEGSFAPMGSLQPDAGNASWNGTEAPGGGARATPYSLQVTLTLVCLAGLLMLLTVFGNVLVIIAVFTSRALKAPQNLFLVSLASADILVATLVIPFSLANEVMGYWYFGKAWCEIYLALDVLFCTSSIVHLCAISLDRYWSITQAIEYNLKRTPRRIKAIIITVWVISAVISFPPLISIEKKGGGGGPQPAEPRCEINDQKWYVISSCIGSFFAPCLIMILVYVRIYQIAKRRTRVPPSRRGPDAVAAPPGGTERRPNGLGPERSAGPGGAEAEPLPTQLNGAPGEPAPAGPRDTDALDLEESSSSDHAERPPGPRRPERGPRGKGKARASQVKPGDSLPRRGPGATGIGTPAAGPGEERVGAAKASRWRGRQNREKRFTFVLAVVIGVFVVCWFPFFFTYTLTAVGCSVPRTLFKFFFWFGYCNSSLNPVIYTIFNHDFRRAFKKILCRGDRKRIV
From the text: For this purpose sDNA of human α2A receptor is expressed in Sf9 cells, as described in [Uhlen S, Porter AC and Neubig RR. […] J Pharmacol ExpTher. […] J Pharmacol ExpTher. […] Yohimbine is used as positive control.

[3] = biological target: T7, recombinant human 5-HT2A receptor (Homo sapiens, UniProt P28223); assay: Radioligand binding to serotonin receptor 5-HT2A ([3H] Ketanserin, CHO-K1 membranes)
T7 construct: expressed in transfected cells; host or cells: CHO-K1
From the text: 9-C. […] J Neurochem. […] Ketanserin is used as positive control.

[4] = biological target: T8, recombinant human 5-HT2B receptor (Homo sapiens, UniProt P41595); assay: Radioligand binding to serotonin receptor 5-HT2B ([3H] Lysergic acid diethylamide, CHO-K1 membranes)
T8 construct: expressed in transfected cells; host or cells: CHO-K1

human H1 receptor = biological target: T9, human H1 receptor (Homo sapiens, UniProt P35367); assay: Radioligand binding to histamine receptor H1 ([3H] Pyrilamine, CHO-K1 membranes); settings: read-out: Histamine receptors, % inhibition H1, 10 µM ligand
T9 construct: expressed in transfected cells; host or cells: CHO-K1
From the text: Biochem Biophys Res Comm. 197(3): 1601-1608, 1993]. […] Biochem Biophys Res Comm. 197(3): 1601-1608, 1993].
Pyrilamine is used as positive control.

human H2 receptor = biological target: T10, human H2 receptor (Homo sapiens, UniProt P25021); assay: Radioligand binding to histamine receptor H2 ([125I] Aminopotentidine, CHO-K1 membranes); settings: read-out: Histamine receptors, % inhibition H2
T10 construct: expressed in transfected cells; host or cells: CHO-K1
From the text: Proc Natl Acad Sci USA. 87(5): 1658-1662, 1990]. […] Proc Natl Acad Sci USA. 87(5): 1658-1662, 1990]. […] Tiotidine is used as positive control.

T4 sequence (P50406 whole entry): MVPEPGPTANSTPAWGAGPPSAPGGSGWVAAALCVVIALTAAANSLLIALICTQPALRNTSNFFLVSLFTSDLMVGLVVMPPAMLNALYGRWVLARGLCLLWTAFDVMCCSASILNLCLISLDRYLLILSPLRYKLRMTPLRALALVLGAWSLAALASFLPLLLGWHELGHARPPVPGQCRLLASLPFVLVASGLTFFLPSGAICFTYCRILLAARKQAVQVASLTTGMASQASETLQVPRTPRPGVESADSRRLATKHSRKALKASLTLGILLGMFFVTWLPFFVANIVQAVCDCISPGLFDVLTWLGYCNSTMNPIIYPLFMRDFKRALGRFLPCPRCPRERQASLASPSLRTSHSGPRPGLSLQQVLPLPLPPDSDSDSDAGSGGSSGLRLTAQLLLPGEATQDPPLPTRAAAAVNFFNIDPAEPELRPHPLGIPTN
T8 sequence (P41595 whole entry): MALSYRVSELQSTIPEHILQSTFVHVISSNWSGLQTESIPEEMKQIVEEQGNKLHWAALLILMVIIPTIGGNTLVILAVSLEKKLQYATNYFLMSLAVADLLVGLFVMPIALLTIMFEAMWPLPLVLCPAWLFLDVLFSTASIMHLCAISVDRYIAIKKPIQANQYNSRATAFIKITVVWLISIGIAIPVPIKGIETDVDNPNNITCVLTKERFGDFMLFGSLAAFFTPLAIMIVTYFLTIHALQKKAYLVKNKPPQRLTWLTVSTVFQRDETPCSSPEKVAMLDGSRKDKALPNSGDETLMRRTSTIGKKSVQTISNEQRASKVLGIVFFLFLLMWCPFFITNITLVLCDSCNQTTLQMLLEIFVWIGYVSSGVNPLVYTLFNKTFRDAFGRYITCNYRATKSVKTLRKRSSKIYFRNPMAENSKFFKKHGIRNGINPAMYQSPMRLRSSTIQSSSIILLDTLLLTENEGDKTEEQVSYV
T7 sequence (P28223 whole entry): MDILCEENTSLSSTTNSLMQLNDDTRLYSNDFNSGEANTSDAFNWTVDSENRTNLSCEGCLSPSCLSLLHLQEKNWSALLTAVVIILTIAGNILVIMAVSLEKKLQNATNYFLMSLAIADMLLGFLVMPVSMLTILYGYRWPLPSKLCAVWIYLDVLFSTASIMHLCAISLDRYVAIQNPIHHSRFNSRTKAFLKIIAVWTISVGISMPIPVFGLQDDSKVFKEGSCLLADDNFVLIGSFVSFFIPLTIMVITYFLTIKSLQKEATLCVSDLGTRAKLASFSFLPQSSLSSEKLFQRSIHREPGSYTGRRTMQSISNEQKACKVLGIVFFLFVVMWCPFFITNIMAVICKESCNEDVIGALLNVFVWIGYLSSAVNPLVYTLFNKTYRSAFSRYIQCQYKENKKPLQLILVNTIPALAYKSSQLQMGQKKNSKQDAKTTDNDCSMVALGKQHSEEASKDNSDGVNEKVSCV
T9 sequence (P35367 whole entry): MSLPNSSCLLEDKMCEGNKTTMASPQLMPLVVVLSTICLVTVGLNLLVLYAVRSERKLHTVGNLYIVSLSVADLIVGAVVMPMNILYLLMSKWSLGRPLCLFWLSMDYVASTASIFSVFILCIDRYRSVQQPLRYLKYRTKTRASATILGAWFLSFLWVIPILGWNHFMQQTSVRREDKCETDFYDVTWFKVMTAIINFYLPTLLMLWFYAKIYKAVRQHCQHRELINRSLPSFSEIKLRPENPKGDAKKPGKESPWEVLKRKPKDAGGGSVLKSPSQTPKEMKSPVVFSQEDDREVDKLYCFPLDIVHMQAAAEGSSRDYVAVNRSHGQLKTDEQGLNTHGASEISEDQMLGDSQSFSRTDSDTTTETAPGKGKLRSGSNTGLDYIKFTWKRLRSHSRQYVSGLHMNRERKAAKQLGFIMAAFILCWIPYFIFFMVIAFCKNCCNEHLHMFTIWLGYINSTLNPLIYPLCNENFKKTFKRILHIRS
T10 sequence (P25021 whole entry): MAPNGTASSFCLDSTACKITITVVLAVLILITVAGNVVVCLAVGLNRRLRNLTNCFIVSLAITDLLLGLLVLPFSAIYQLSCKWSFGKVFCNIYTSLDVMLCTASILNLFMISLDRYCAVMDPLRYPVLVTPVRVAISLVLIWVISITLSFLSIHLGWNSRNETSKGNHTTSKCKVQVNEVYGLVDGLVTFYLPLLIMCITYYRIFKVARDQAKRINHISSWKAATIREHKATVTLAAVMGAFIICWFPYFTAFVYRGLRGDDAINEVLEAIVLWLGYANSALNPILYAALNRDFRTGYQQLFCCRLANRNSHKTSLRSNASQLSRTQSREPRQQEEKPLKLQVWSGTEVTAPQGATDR

α-Adrenoceptor, % inhibition α1D (human α1D receptor) [%]	α-Adrenoceptor, % inhibition α1B (adrenergic receptor α1B) [%]	α-Adrenoceptor, % inhibition α1A (adrenergic receptor α1A) [%]	SMILES	inhibition at 10 µM (human α1D receptor) [%]	inhibition at 1 µM [1] [%]	% inhibition (imidazoline receptor I2) [%]	inhibition at 1 µM [2] [%]	also measured
			Cc1ccc2c(c1)c1c(n2CCc2cccnc2)CCCN(C)C1 [1.2.2(3-2)·2HCl]	60	79	63	90	inhibition at 10 µM (adrenergic receptor α1B; read-out: α-Adrenoceptor, % inhibition α1B): 75%; inhibition at 10 µM (adrenergic receptor α1A; read-out: α-Adrenoceptor, % inhibition α1A): 61%; inhibition at 10 µM (human α2A receptor; read-out: α-Adrenoceptor, % inhibition α2A): 71%
68	85	80	Cc1ccc2c(c1)c1c(n2CCc2ccc(C)nc2)CCCN(C)C1 [1.2.2(4-1)]			80		α-Adrenoceptor, % inhibition α2A (human α2A receptor; 10 µM ligand): 79%
68	89	74	Cc1ccc2c(c1)c1c(n2CCc2ccncc2)CCCN(C)C1 [1.2.2(5-2)]			72		
			Cc1ccc(S(=O)(=O)n2c3c(c4cc(C)ccc42)CN(C)CCC3)cc1 [1.8.1(3)·HCl]	55	93	17	90	nH ([3]; 5-HT2A): 1.01; inhibition at 1 µM ([3]; ligand concentration 1 µM): 100%; nH ([4]; 5-HT2B): 0.784; inhibition at 1 µM ([4]; read-out: 5-HT2B % inhibition): 101%; inhibition at 10 µM (human H1 receptor): 95%; IC50 [1]: 535 nM; Ki [1]: 307 nM; nH ([1]; 5-HT6): 1.07; nH ([1]; last block of Table 11: receptor printed 5-HT6 in r18, cell blank in r19-r21): 0.665; inhibition at 10 µM (human H2 receptor): 82%
